Reference: PubChem BioAssay (NCI)
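All cell lines were grown in 96-well plates and treated with compound for 48 hours. TGI marks complete inhibition of growth.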

Legend:
Assay in all cases: inhibition of tumour cell growth, NCI panel, 48 h
SK-MEL-28 melanoma = test system: SK-MEL-28 melanoma
KM12 colon = test system: KM12 colon
UACC-257 melanoma = test system: UACC-257 melanoma
BT-549 breast = test system: BT-549 breast
MALME-3M melanoma = test system: MALME-3M melanoma
SNB-75 CNS = test system: SNB-75 CNS
CCRF-CEM leukemia = test system: CCRF-CEM leukemia
OVCAR-4 ovarian = test system: OVCAR-4 ovarian
UO-31 renal = test system: UO-31 renal
HCC-2998 colon = test system: HCC-2998 colon
OVCAR-3 ovarian = test system: OVCAR-3 ovarian
UACC-62 melanoma = test system: UACC-62 melanoma
HOP-62 NSCLC = test system: HOP-62 NSCLC
EKVX NSCLC = test system: EKVX NSCLC
U251 CNS = test system: U251 CNS
COLO 205 colon = test system: COLO 205 colon
SF-268 CNS = test system: SF-268 CNS
A498 renal = test system: A498 renal
RPMI-8226 leukemia = test system: RPMI-8226 leukemia
NCI-H23 lung = test system: NCI-H23 lung
NCI-H226 lung = test system: NCI-H226 lung
SK-OV-3 ovarian = test system: SK-OV-3 ovarian
SNB-19 CNS = test system: SNB-19 CNS
MCF7 breast = test system: MCF7 breast
SK-MEL-2 melanoma = test system: SK-MEL-2 melanoma
T-47D breast = test system: T-47D breast
MDA-MB-231 breast = test system: MDA-MB-231 breast
SF-295 CNS = test system: SF-295 CNS
786-0 renal = test system: 786-0 renal
ACHN renal = test system: ACHN renal
MDA-MB-435 = test system: MDA-MB-435
OVCAR-8 ovarian = test system: OVCAR-8 ovarian
K-562 leukemia = test system: K-562 leukemia
MOLT-4 leukemia = test system: MOLT-4 leukemia
PC-3 prostate = test system: PC-3 prostate
SN12C renal = test system: SN12C renal
HT29 colon = test system: HT29 colon
NCI/ADR-RES ovarian = test system: NCI/ADR-RES ovarian
HS 578T breast = test system: HS 578T breast
HCT-15 colon = test system: HCT-15 colon
SF-539 CNS = test system: SF-539 CNS
M14 melanoma = test system: M14 melanoma
NCI-H460 lung = test system: NCI-H460 lung
DU-145 prostate = test system: DU-145 prostate
SW-620 colon = test system: SW-620 colon
OVCAR-5 ovarian = test system: OVCAR-5 ovarian
A549 NSCLC = test system: A549 NSCLC
HCT-116 colon = test system: HCT-116 colon
MDA-N = test system: MDA-N
CAKI-1 renal = test system: CAKI-1 renal
IGROV1 ovarian = test system: IGROV1 ovarian
RXF 393 renal = test system: RXF 393 renal
HL-60(TB) leukemia = test system: HL-60(TB) leukemia
HOP-92 NSCLC = test system: HOP-92 NSCLC
SK-MEL-5 melanoma = test system: SK-MEL-5 melanoma
NCI-H522 lung = test system: NCI-H522 lung
LOX IMVI melanoma = test system: LOX IMVI melanoma
TK-10 renal = test system: TK-10 renal

O=[N+]([O-])C(=C1NCCN1)/C(Cl)=C(/Cl)N1CCOCC1
TGI (SK-MEL-28 melanoma): > 100 µM
TGI (KM12 colon): > 100 µM
TGI (UACC-257 melanoma): > 100 µM
TGI (BT-549 breast): > 100 µM
TGI (MALME-3M melanoma): > 100 µM
TGI (SNB-75 CNS): > 100 µM
TGI (CCRF-CEM leukemia): > 100 µM
TGI (OVCAR-4 ovarian): > 100 µM
TGI (UO-31 renal): > 100 µM
TGI (HCC-2998 colon): > 100 µM
TGI (OVCAR-3 ovarian): > 100 µM
TGI (UACC-62 melanoma): > 100 µM
TGI (HOP-62 NSCLC): > 100 µM
TGI (EKVX NSCLC): > 100 µM
TGI (U251 CNS): > 100 µM
TGI (COLO 205 colon): > 100 µM
TGI (SF-268 CNS): > 100 µM
TGI (A498 renal): > 100 µM
TGI (RPMI-8226 leukemia): > 100 µM
TGI (NCI-H23 lung): > 100 µM
TGI (NCI-H226 lung): > 100 µM
TGI (SK-OV-3 ovarian): > 100 µM
TGI (SNB-19 CNS): > 100 µM
TGI (MCF7 breast): > 100 µM
TGI (SK-MEL-2 melanoma): > 100 µM
TGI (T-47D breast): > 100 µM
TGI (MDA-MB-231 breast): > 100 µM
TGI (SF-295 CNS): > 100 µM
TGI (786-0 renal): > 100 µM
TGI (ACHN renal): > 100 µM
TGI (MDA-MB-435): > 100 µM
TGI (OVCAR-8 ovarian): > 100 µM
TGI (K-562 leukemia): > 100 µM
TGI (MOLT-4 leukemia): > 100 µM
TGI (PC-3 prostate): > 100 µM
TGI (SN12C renal): > 100 µM
TGI (HT29 colon): > 100 µM
TGI (NCI/ADR-RES ovarian): > 100 µM
TGI (HS 578T breast): > 100 µM
TGI (HCT-15 colon): > 100 µM
TGI (SF-539 CNS): > 100 µM
TGI (M14 melanoma): > 100 µM
TGI (NCI-H460 lung): > 100 µM
TGI (DU-145 prostate): > 100 µM
TGI (SW-620 colon): > 100 µM
TGI (OVCAR-5 ovarian): > 100 µM
TGI (A549 NSCLC): > 100 µM
TGI (HCT-116 colon): > 100 µM
TGI (MDA-N): > 100 µM
TGI (CAKI-1 renal): > 100 µM

CC(NC(=O)C(C)C(=O)Nc1ccc(C(F)(F)F)cc1)C(N)=O (stereo unspecified)
TGI (KM12 colon): > 100 µM
TGI (UACC-257 melanoma): > 100 µM
TGI (BT-549 breast): > 100 µM
TGI (MALME-3M melanoma): > 100 µM
TGI (IGROV1 ovarian): > 100 µM
TGI (SNB-75 CNS): > 100 µM
TGI (CCRF-CEM leukemia): > 100 µM
TGI (UO-31 renal): > 100 µM
TGI (RXF 393 renal): > 100 µM
TGI (HL-60(TB) leukemia): > 100 µM
TGI (UACC-62 melanoma): > 100 µM
TGI (EKVX NSCLC): > 100 µM
TGI (HOP-92 NSCLC): > 100 µM
TGI (U251 CNS): > 100 µM
TGI (COLO 205 colon): > 100 µM
TGI (SF-268 CNS): > 100 µM
TGI (RPMI-8226 leukemia): > 100 µM
TGI (NCI-H23 lung): > 100 µM
TGI (NCI-H226 lung): > 100 µM
TGI (SK-OV-3 ovarian): > 100 µM
TGI (SNB-19 CNS): > 100 µM
TGI (MCF7 breast): > 100 µM
TGI (SK-MEL-2 melanoma): > 100 µM
TGI (T-47D breast): > 100 µM
TGI (MDA-MB-231 breast): > 100 µM
TGI (SF-295 CNS): > 100 µM
TGI (786-0 renal): > 100 µM
TGI (ACHN renal): > 100 µM
TGI (MDA-MB-435): > 100 µM
TGI (OVCAR-8 ovarian): > 100 µM
TGI (K-562 leukemia): > 100 µM
TGI (SK-MEL-5 melanoma): > 100 µM
TGI (NCI-H522 lung): > 100 µM
TGI (PC-3 prostate): > 100 µM
TGI (SN12C renal): > 100 µM
TGI (HT29 colon): > 100 µM
TGI (NCI/ADR-RES ovarian): > 100 µM
TGI (HS 578T breast): > 100 µM
TGI (HCT-15 colon): > 100 µM
TGI (SF-539 CNS): > 100 µM
TGI (M14 melanoma): > 100 µM
TGI (NCI-H460 lung): > 100 µM
TGI (DU-145 prostate): > 100 µM
TGI (SW-620 colon): > 100 µM
TGI (OVCAR-5 ovarian): > 100 µM
TGI (A549 NSCLC): > 100 µM
TGI (HCT-116 colon): > 100 µM
TGI (MDA-N): > 100 µM
TGI (CAKI-1 renal): > 100 µM

O=C(C(=NC12CC3CC(CC(C3)C1)C2)NNc1ccc([N+](=O)[O-])cc1[N+](=O)[O-])C(Br)C(=O)c1ccccc1 (stereo unspecified)
TGI (SK-MEL-28 melanoma): > 10 µM
TGI (KM12 colon): > 10 µM
TGI (LOX IMVI melanoma): 6.25 µM
TGI (UACC-257 melanoma): 6.28 µM
TGI (BT-549 breast): > 10 µM
TGI (MALME-3M melanoma): > 10 µM
TGI (IGROV1 ovarian): > 10 µM
TGI (SNB-75 CNS): 7.38 µM
TGI (CCRF-CEM leukemia): 7.67 µM
TGI (OVCAR-4 ovarian): > 10 µM
TGI (UO-31 renal): > 10 µM
TGI (RXF 393 renal): 8.31 µM
TGI (HCC-2998 colon): > 10 µM
TGI (OVCAR-3 ovarian): 8.83 µM
TGI (HL-60(TB) leukemia): 5.57 µM
TGI (UACC-62 melanoma): > 10 µM
TGI (HOP-62 NSCLC): 6.84 µM
TGI (EKVX NSCLC): 9.64 µM
TGI (HOP-92 NSCLC): 6.66 µM
TGI (U251 CNS): > 10 µM
TGI (COLO 205 colon): 4.23 µM
TGI (SF-268 CNS): > 10 µM
TGI (A498 renal): 6.96 µM
TGI (RPMI-8226 leukemia): 6.38 µM
TGI (NCI-H23 lung): 8.4 µM
TGI (NCI-H226 lung): 8.31 µM
TGI (SK-OV-3 ovarian): 9.04 µM
TGI (SNB-19 CNS): > 10 µM
TGI (MCF7 breast): > 10 µM
TGI (SK-MEL-2 melanoma): > 10 µM
TGI (T-47D breast): 9.29 µM
TGI (MDA-MB-231 breast): 6.13 µM
TGI (SF-295 CNS): > 10 µM
TGI (786-0 renal): > 10 µM
TGI (ACHN renal): > 10 µM
TGI (MDA-MB-435): > 10 µM
TGI (OVCAR-8 ovarian): > 10 µM
TGI (K-562 leukemia): > 10 µM
TGI (MOLT-4 leukemia): 9.72 µM
TGI (TK-10 renal): > 10 µM
TGI (SK-MEL-5 melanoma): 2.5 µM
TGI (PC-3 prostate): 9.87 µM
TGI (SN12C renal): > 10 µM
TGI (HT29 colon): > 10 µM
TGI (NCI/ADR-RES ovarian): > 10 µM
TGI (HS 578T breast): > 10 µM
TGI (HCT-15 colon): > 10 µM
TGI (SF-539 CNS): 8.73 µM
TGI (M14 melanoma): 6.84 µM
TGI (NCI-H460 lung): > 10 µM
TGI (DU-145 prostate): > 10 µM
TGI (SW-620 colon): > 10 µM
TGI (OVCAR-5 ovarian): > 10 µM
TGI (A549 NSCLC): > 10 µM
TGI (HCT-116 colon): 8.78 µM
TGI (MDA-N): > 10 µM
TGI (CAKI-1 renal): > 10 µM
